Assay results: patent US8257700B2, “Proteomic analysis of active multiple sclerosis lesions” (The Board of Trustees of the Leland Stanford Junior …, priority 2008, dated 2012)

Assays:
rheumatoid arthritis = details: cited from earlier work
[1] = test system: MS relapses and active EAE; details: during MS relapses and active EAE; cited from earlier work
EAE mice = assay: EAE induced with PLP139-151 in SJL/J mice, daily clinical score; format: in vivo, mouse (SJL/J); details: for clinical status (mean clinical score), time of amelioration: recombinant human aPC variants 0.46 mg/kg daily i.v. from maximal paralysis until day 30, vs PBS
Description: EAE induction, treatment with hirudin, aPC (WT and mutants), proliferation assays, cytokine analysis and quantitative histopathology. Mice were maintained in the Research Animal Facility at Stanford University. EAE was induced in 7-8 week old SJL/J female mice by subcutaneous immunization with 100 μg PLP139-151 in emulsion. For hirudin or aPC treatment, EAE mice (n=10/group) were treated with daily intravenous injection of hirudin (10 mg/kg) or mouse recombinant aPC-WT (0.2 mg/kg) at the peak of disease and compared with PBS treated group. Mice were assessed daily for clinical signs of EAE and scored according to: 0, no clinical disease; 1, tail weakness; 2, hindlimb weakness; 3, complete hindlimb paralysis; 4, hindlimb paralysis and some forelimb weakness; 5, moribund or dead.
Recombinant human aPC-WT and mutants (aPC-L8W and aPC-K193E) were prepared as described by Grinnell et al (2007) Critical Care Medicine (suppl). These aPC variants have the following properties on aPTT and PAR-1 signaling function: aPC-WT: aPTT (relative activity)=1, PAR-1 (relative activity)=1, aPC-L8W: aPTT=1, PAR-1=0.02 and aPC-K193E: aPTT=0.03, PAR-1=1. EAE mice (n=7/group) were treated with daily intravenous injection of recombinant human aPC-WT, aPC-L8W, aPC-K193E (0.46 mg/kg) or PBS (control group) at the time of maximal paralysis and assessed daily until day 30.

PAR-1 = target: T1, PAR-1 (Homo sapiens, UniProt P25116); details: cited from earlier work
T1 sequence (P25116 22-425): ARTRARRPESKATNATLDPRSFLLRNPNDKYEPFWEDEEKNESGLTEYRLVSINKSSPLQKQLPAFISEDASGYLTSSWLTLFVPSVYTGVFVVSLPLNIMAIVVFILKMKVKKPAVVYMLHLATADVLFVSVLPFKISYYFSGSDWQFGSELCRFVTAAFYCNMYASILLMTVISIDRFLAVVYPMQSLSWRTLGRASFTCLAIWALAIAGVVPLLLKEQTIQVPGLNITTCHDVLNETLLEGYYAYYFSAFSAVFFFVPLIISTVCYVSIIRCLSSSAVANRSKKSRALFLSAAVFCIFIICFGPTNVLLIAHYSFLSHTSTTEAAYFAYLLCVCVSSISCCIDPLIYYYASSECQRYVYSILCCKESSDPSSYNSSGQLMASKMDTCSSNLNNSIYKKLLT

aPTT = details: cited from earlier work; for aPTT (relative activity): relative to aPC-WT
[2] = test system: primary peritoneal macrophages; assay: Peritoneal macrophage activation with LPS, cytokine ELISA; format: cell-based, mouse (SJL/J); details: 30 nM recombinant murine aPC pre-treatment, LPS 100 ng/ml
Description: Primary peritoneal macrophages were isolated from naïve 8-9 weeks old SJL/J mice following intraperitoneal injection of thioglycollate (BD Diagnostic Systems) and cultured in complete medium (DMEM supplemented with 10% fetal bovine serum, 1 mM sodium pyruvate, […] and 0.1 mg/ml streptomycin). Cells (1×10^6 cells/ml) were treated with 30 nM recombinant murine aPC for 15 minutes, then activated with LPS 100 ng/ml (Sigma), harvested at different time points (15 min-72 hours), and cytokine levels were measured.

[3] = test system: splenocytes and lymph node cells; assay: Cytokine production (ELISA) of splenocytes and lymph node cells from treated EAE mice; format: cell-based, mouse (SJL/J)
Description: (§1) In vitro immune cell proliferation and cytokine analysis were performed as previously described (Ousman et al. (2007) Nature 448, 474-9). Briefly, splenocytes and lymph node cells harvested from EAE experiments were cultured in flat-bottomed, 96-well plates at a concentration of 0.5×10^6 cells/well in stimulation media (RPMI 1640 supplemented with 2 mM L-glutamine, 1 mM sodium pyruvate, 0.1 mM non-essential amino acids, 100 U/ml^2 Penicillin, 0.1 mg/ml^2 streptomycin, 0.5 μM 2-mercaptoethanol and 10% fetal calf serum) and activated with PLP139-151 peptide (5-20 μg/ml). To determine proliferation rates, cultures were pulsed with (^3H)-Thymidine (1 μCi per well) following 72-hour culture and harvested 18 hours later onto filter paper. The counts per minute (cpm) of incorporated ^3H-Thymidine were read using a beta counter. Cytokine levels (IL-2, IL-4, IL-6, IL-10, IL-12p40, IL-17, IFN-γ, TNF) were measured from the supernatant of cultured cells using anti-mouse OPTEIA ELISA kits (BD Pharmigen).

[4] = test system: brain and spinal cord of EAE mice; assay: Quantitative histopathology: inflammatory foci in brain and spinal cord of EAE mice; format: in vivo, mouse (SJL/J)
Description: For histopathological analysis, brains and spinal cord of EAE mice were fixed in 10% formaldehyde. […] paraffin sections were stained with LFB and H&E and the number of inflammatory foci within the brain and spinal cord were quantified by a neuropathologist who was blinded to the treatment and clinical parameters of the mice.

primary astrocytes = assay: Primary astrocyte activation with LPS, cytokine ELISA; format: cell-based, mouse (SJL/J); details: 30 nM recombinant murine aPC pre-treatment, LPS 100 ng/ml
Description: Astrocyte culture. Astrocytes were cultured from brain of one-day-old SJL/J pups as described previously. Briefly, the cerebral cortices from pups were minced, cells were disrupted by passing through a filter and cultured in complete DMEM. Purified astrocytes (50-80% confluent) were treated with 30 nM recombinant murine aPC for 15 minutes and activated with 100 ng/ml LPS (Sigma). Cells were harvested at 4, 24, 48 and 72-hours, and supernatant were analyzed by ELISA for cytokine production.

[5] = test system: splenocytes and lymph node cells; assay: In vitro proliferation (3H-thymidine) of splenocytes and lymph node cells from treated EAE mice, activated with PLP peptide; format: cell-based, mouse (SJL/J)
Description: as §1

NF-κB signalling (IκB-α) = assay: Western blot of IκB-α in T cells (NF-κB activation); format: cell-based, mouse (SJL/J); details: T cells treated with murine aPC, cell activation assay
Description: Western blot analysis. For NF-κB activation, total cell lysate from purified T cells treated with aPC were analyzed by SDS-PAGE, transferred to PVDF membrane, probed with antibodies against IκB-α, and β-actin and the signal was visualized by enhanced chemiluminescence.

purified T cells = assay: Purified T cell activation with CD3/CD28, cytokine ELISA; format: cell-based, mouse (SJL/J); details: 30 nM recombinant murine aPC pre-treatment, CD3/CD28 5 μg/ml
Description: In vitro Immune cell activation assays and cytokine analysis. T lymphocytes were isolated from pooled splenocytes and lymph node cells from 8 week-old naïve SJL/J mice by negative selection (Pan T cell isolation kit, Miltenyi Biotech). Cells were pre-treated with 30 nM recombinant murine aPC for 15 mins at 37° C. followed by activation with CD3/CD28 (5 μg/ml) coated on 12 well plates. Cells were cultured at 5×10^6 cells/ml concentration in stimulation media. Culture plates were harvested at different time points (15 min-96 hours) and cytokine levels were measured from culture supernatant by ELISA.

[6] = Anti-hirudin antibodies in serum of treated EAE mice; format: in vivo, mouse; details: EAE mice treated with hirudin
[7] = cells from aPC-treated vs PBS-treated mice
[8] = hirudin 10 mg/kg daily i.v. from peak of disease
[9] = cells from hirudin-treated vs vehicle-treated mice

For `CN(Cc1cnc2nc(N)nc(N)c2n1)c1ccc(C(=O)N[C@@H](CCC(=O)O)C(=O)O)cc1` [MTX, Methotrexate], the “patients having some response” value (rheumatoid arthritis) is listed as 70% and the onset of action (rheumatoid arthritis; patients) is listed as 4-6 weeks.
In the case of Heparin, the symptoms [1] is listed as “improve symptoms”.
For “aPC-K193E: recombinant human aPC mutant; mainly participates in PAR-1 signalling and lacks anticoagulant activities”, the “clinical status (mean clinical score), time of amelioration” value (from here on “clinical status (mean clinical score)”) (EAE mice) is listed as “significant amelioration early in the disease course (days 20-25)”, the “PAR-1 signalling (in words)” value (PAR-1) is listed as “mainly participates in PAR-1 signalling” and the “anticoagulant properties (in words)” value (aPTT) is listed as “lacks anticoagulant activities”. For the same compound, the “aPTT (relative activity)” value (aPTT) was 0.03.
For “aPC-L8W: recombinant human aPC mutant; retains anticoagulant properties but lacks PAR-1 signalling, defective EPCR interaction at L8”, the “clinical status (mean clinical score)” value (EAE mice) is given as “significant amelioration early in the disease course (days 20-25)”, the “PAR-1 signalling (in words)” value (PAR-1) is given as “lacks PAR-1 signalling” and the “anticoagulant properties (in words)” value (aPTT) is given as “retains anticoagulant properties”. For the same compound, the “aPTT (relative activity)” value (aPTT) was 1.
For “aPC-WT: recombinant human activated protein C wild type”, the “clinical status (mean clinical score)” value (EAE mice) was “improvement in the latter part of disease course (days 25-30)”.
In the case of “aPC: recombinant murine activated protein C, provided by Lilly Research Laboratories”, the relapse rates (EAE mice; recombinant murine aPC 0.2 mg/kg) is reported as “no effect”, the “disease severity (mean clinical score)” value (EAE mice; recombinant murine aPC 0.2 mg/kg daily i.v. from peak of disease vs PBS) is reported as “significant amelioration of disease severity” and the IL6 production [2] is reported as “less”. The IL17 production [2] was “less”, the “Th1 and Th17 cytokines” value [3, 7] was “inhibition” and the “inflammatory foci in the CNS tissue” value ([4]; aPC-treated vs PBS) was “fewer inflammatory foci”. For the same compound, the IL6 production (primary astrocytes) was “less”, the IL17 production (primary astrocytes) was “less” and the “immune cell proliferation in splenocytes and lymph node cells” value [5, 7] was “decreased immune cell proliferation”. The IκB breakdown (NF-κB signalling (IκB-α)) was “less IκB breakdown” and the IL17 levels (purified T cells) was “low levels”.
For “hirudin: thrombin inhibitor hirudin (Refludan, recombinant lepirudin, Berlex)”, the disease course (EAE mice; [8]) was “no effect”, the relapse rates (EAE mice; [8]) was “no effect” and the “disease severity (mean clinical score)” value (EAE mice; hirudin 10 mg/kg daily i.v. from peak of disease vs PBS) was “dramatic improvement of disease severity”. The “time up to which amelioration of EAE was observed” value (EAE mice; hirudin treatment) was ≤ 35 days, the IL4 production [3, 9] was “no differences” and the IL-6 production [3, 9] was “suppression”. The IL-10 production [3, 9] was “no differences”, the IL-12 production [3, 9] was “no differences” and the IL-17 production [3, 9] was “suppression”. For the same compound, the “interferon-γ (IFN-γ) production” value [3, 9] was “no differences”, the “tumor necrosis factor (TNF) production” value [3, 9] was “suppression” and the “inflammatory foci in brains and spinal cords” value ([4]; hirudin-treated vs PBS) was “fewer inflammatory foci”. For the same compound, the immune cell proliferation ([5]; cells from hirudin-treated vs PBS-treated mice, PLP activated) was “decreased immune cell proliferation” and the “anti-hirudin antibodies in serum” value [6] was “presence of anti-hirudin antibodies”.
